Experimental data: patent US12329726B2, “Biomarkers for efficacy of prophylactic treatments against stress-induced affective disorders” (The Trustees of Columbia University in the City of New York, priority 2017, dated 2025)

Columns and labels:
PFC metabolites [1] = assay: Untargeted metabolomic profiling of prefrontal cortex (PFC), stressed mice (ketamine + CFC)
129S6/SvEvTac mice [2] = assay: 3-shock contextual fear conditioning (CFC), freezing; settings: ketamine 30 mg kg-1 i.p., single dose 1 week before 3-shock CFC; vs saline
mouse models of stress = settings: cited from earlier work
plasma metabolites [3] = assay: Metabolomic profiling of plasma, non-stressed mice (ketamine, no shock); settings: prophylactic ketamine, mice not administered shocks
HPC metabolites [4] = assay: Metabolomic profiling of HPC, non-stressed mice (ketamine, no shock); settings: context exposure group (no shock), following prophylactic ketamine administration
[5] = system: treatment-resistant MDD (TRD) patients; settings: cited from earlier work
PFC metabolites [6] = assay: Metabolomic profiling of PFC, non-stressed mice (ketamine, no shock)
HPC metabolites [7] = assay: Untargeted metabolomic profiling of hippocampus (HPC), stressed mice (ketamine + CFC)
[8] = system: plasma amino acid-derived neurotransmitters and precursors; assay: Separate plasma analysis of metabolites involved in neurotransmission, stressed mice; format: in vivo
plasma metabolites [9] = assay: Untargeted metabolomic profiling of plasma, stressed mice (ketamine + CFC); settings: prophylactic ketamine + stress
129S6/SvEvTac mice [10] = assay: Context exposure without shocks (no-shock control), freezing; settings: ketamine 30 mg kg-1 i.p., 1 week before context exposure without shocks; vs saline
[11] = molecular target: T1, kappa-opioid receptor (KOR) (Rattus norvegicus, UniProt P34975); settings: administered before the FPS test; cited from earlier work
T1 construct: host or cells: live rats (behavioural test)
T1 sequence (P34975 whole entry): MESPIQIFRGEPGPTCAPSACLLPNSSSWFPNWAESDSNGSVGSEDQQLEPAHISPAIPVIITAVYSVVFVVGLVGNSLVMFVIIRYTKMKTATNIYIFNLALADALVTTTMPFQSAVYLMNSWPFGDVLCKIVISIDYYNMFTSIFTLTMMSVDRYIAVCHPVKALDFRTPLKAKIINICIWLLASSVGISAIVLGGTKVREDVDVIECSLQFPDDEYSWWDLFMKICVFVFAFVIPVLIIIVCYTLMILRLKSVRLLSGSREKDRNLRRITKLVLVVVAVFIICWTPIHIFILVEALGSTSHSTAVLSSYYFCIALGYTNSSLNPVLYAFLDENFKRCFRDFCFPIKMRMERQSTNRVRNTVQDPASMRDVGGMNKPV

[12] = PFC, CFC group, following prophylactic ketamine administration
[13] = prophylactic ketamine + stress, MetaboAnalyst 3.0
[14] = prophylactic ketamine + stress, vs saline
[15] = single injection 30 mg kg-1, 1 week before a stressor
[16] = ketamine 30 mg/kg without CFC stress
[17] = HPC, CFC group, following prophylactic ketamine administration
[18] = Plasma, CFC group, following prophylactic ketamine administration

In the case of `CNC1(c2ccccc2Cl)CCCCC1=O` (racemic) [ketamine, (RS)-2-(2-chlorophenyl)-2-(methylamino)cyclohexanone], the “D-Serine (Ser) level, change” value (PFC metabolites [1]; [12]) is reported as “Decrease”, the “Glycine (Gly) level, change” value (PFC metabolites [1]; [12]) is reported as “Decrease” and the “L-Tyrosine (Tyr) level, change” value (PFC metabolites [1]; [12]) is reported as “Decrease”. The “Phenylalanine (Phe) level, change” value (PFC metabolites [1]; [12]) was “Decrease”, the “Correlation of dUDP expression in the PFC with freezing levels upon context re-exposure” value (PFC metabolites [1]; mice given prophylactic ketamine prior to stress, regression analysis) was “positively correlated with freezing levels” and the “Number of metabolites changed in the same direction in both hemispheres of the PFC and HPC” value (PFC metabolites [1]; of the 8 changed, prophylactic ketamine + stress) was 6 metabolites. For the same compound, the “Number of metabolites changed in both hemispheres of the PFC and HPC” value (PFC metabolites [1]; prophylactic ketamine 30 mg kg-1 + CFC stressor, PFC and HPC) was 8 metabolites, the “Pathway analysis of changed metabolites in the PFC” value (PFC metabolites [1]; [13]) was “purine metabolism; phenylalanine, tyrosine, and tryptophan metabolism; and phenylalanine metabolism are most significantly changed” and the “Levels of AMP and ATP in PFC, HPC and plasma” value (PFC metabolites [1]; prophylactic ketamine + stress, both hemispheres of PFC and HPC, and plasma) was “increases levels of adenosine monophosphate (AMP) and ATP”. For the same compound, the “Inhibitory neurotransmitter metabolites in PFC and HPC” value (PFC metabolites [1]; prophylactic ketamine + stress, e.g. alanine, GABA, taurine) was “almost all inhibitory neurotransmitter metabolites were increased”, the “Excitatory neurotransmitter metabolites in PFC and HPC” value (PFC metabolites [1]; prophylactic ketamine + stress, e.g. serine, tyrosine, phenylalanine, exception glutamic acid) was “nearly all excitatory neurotransmitter metabolites were decreased” and the “Adenosine and guanosine metabolites in both hemispheres of PFC and HPC” value (PFC metabolites [1]; [14]) was “increased”. For the same compound, the “Inosine metabolites in both hemispheres of PFC and HPC” value (PFC metabolites [1]; [14]) was “decreased”, the “Fear response (freezing) during context re-exposure” value (129S6/SvEvTac mice [2]) was “attenuated the fear response” and the “Freezing behavior during CFC encoding (training)” value (129S6/SvEvTac mice [2]) was “did not alter freezing behavior during CFC encoding”. The “Time window for prophylactic efficacy before a stressor” value (mouse models of stress; not 1 month or 1 hour before) was “approximately 1 week”, the “Duration of protection after injection” value (mouse models of stress; [15]) was “up to 4 weeks” and the “Stress-induced depressive-like behavior and social avoidance behavior” value (mouse models of stress; [15]) was “prevented stress-induced depressive-like behavior and social avoidance behavior”. For the same compound, the “Purine or pyrimidine metabolites in plasma, no shocks” value (plasma metabolites [3]) was “no changes in purines or pyrimidine metabolites were observed”, the “Taurine (Tau) level, change” value (HPC metabolites [4]) was “Increase” and the “Persistence of antidepressant effects” value ([5]; following a single infusion) was 1-2 weeks. The Antidepressant onset ([5]; single infusion, TRD patients) was ≤ 2 h, the “Number of purine metabolites significantly altered in one hemisphere of PFC or HPC, no stress” value (PFC metabolites [6]; [16]) was 3 metabolites and the “Number of pyrimidines significantly altered in one hemisphere of PFC or HPC, no stress” value (PFC metabolites [6]; [16]) was 2. For the same compound, the “Purine metabolite changes in PFC and HPC without stress” value (PFC metabolites [6]; prophylactic ketamine without stress) was “these changes were not observed”, the “Amino acid-derived neurotransmitter metabolites in brain of non-stressed mice” value (PFC metabolites [6]; prophylactic ketamine, non-stressed mice) was “only the inhibitory neurotransmitter metabolite taurine was changed” and the “D-Alanine (Ala) level, change” value (HPC metabolites [7]; [17]) was “Increase”. The “Gamma-aminobuytric acid (GABA) level, change” value (HPC metabolites [7]; [17]) was “Increase”, the “L-Glutamic acid (Glu) level, change” value (HPC metabolites [7]; [17]) was “Increase” and the “O-Phosphoethanolamine (PE) level, change” value (HPC metabolites [7]; [17]) was “Increase”. For the same compound, the “Taurine (Tau) level, change” value (HPC metabolites [7]; [17]) was “Increase”, the “Pathway analysis of changed metabolites in the HPC: further pathways” value (HPC metabolites [7]; [13]) was “altered alanine, aspartate, and glutamate metabolism; glutamine and glutamate metabolism; and taurine and hypotaurine metabolism” and the “Pathway analysis of changed metabolites in the HPC: purine metabolism” value (HPC metabolites [7]; [13]) was “purine metabolism was also significantly altered”. The “5-Hydroxy-L-tryptophan (5-HTP) level, change” value [8, 18] was “Increase”, the “D-Serine (Ser) level, change” value [8, 18] was “Decrease” and the “Gamma-aminobuytric acid (GABA) level, change” value [8, 18] was “Decrease”. For the same compound, the “L-Glutamic acid (Glu) level, change” value [8, 18] was “Decrease”, the “N-Acetyl-L-tyrosine (NALT) level, change” value [8, 18] was “Decrease” and the “O-Phosphoethanolamine (PE) level, change” value [8, 18] was “Increase”. For the same compound, the “Plasma serine and glutamic acid (excitatory neurotransmitters)” value ([8]; prophylactic ketamine + stress) was “serine and glutamic acid were decreased”, the “Pathway analysis of changed metabolites in plasma” value (plasma metabolites [9]) was “purine metabolism, pyrimidine metabolism, the citrate cycle (TCA cycle), and the pentose phosphate pathway were most significantly changed” and the “Ribose and ribulose phosphate (pentose phosphate pathway intermediates) in plasma” value (plasma metabolites [9]) was “significantly changed”. For the same compound, the “Purine metabolites in the plasma” value (plasma metabolites [9]; vs saline) was “significantly increased purine metabolites”, the “Pyrimidine metabolites in the plasma” value (plasma metabolites [9]; with the exception of 5,6-dihydrouridine) was “increased expression of pyrimidine metabolites” and the “Freezing behavior during context exposure or re-exposure, no shocks” value (129S6/SvEvTac mice [10]) was “did not alter freezing behavior during context exposure or re-exposure”.

For `Oc1ccc2c3c1O[C@H]1c4[nH]c5c(c4C[C@@]4(O)[C@@H](C2)N(CC2CC2)CC[C@]314)C[C@@]1(O)[C@H]2Cc3ccc(O)c4c3[C@@]1(CCN2CC1CC1)[C@H]5O4` [norBNI, nor-binaltorphimine], the “Conditioned fear in FPS test” value [11] is given as “attenuated conditioned fear”.
